Measured values: PubChem BioAssay (NCI)
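Following 48 hours of exposure in 96-well plates, responses at five concentrations were used to interpolate endpoints linearly. GI50: concentration for 50% inhibition of growth. TGI is the concentration that stops growth completely.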

Tested on: SK-OV-3 ovarian
Experiment: DTP human tumour cell line panel, 48 h

First: COc1cc2c3c(n(CCCN4CCC(N)CC4)c(=O)c2cc1OC)-c1cc2c(cc1C3=O)OCO2
Second: O=C1c2ccccc2-c2c1c1ccccc1c(=O)n2CCNCCCNCCn1c2c(c3ccccc3c1=O)C(=O)c1ccccc1-2
The GI50 of the first is 2.9-fold higher: 3.47 µM for the first, 1.21 µM for the second.

First: C=C(C)[C@@H]1CC[C@@]2(C(=O)O)CC[C@]3(C)C(CCC4[C@@]5(C)CCC(OS(=O)(=O)c6ccccc6)C(C)(C)C5CC[C@]43C)C12 (stereo partly specified)
Second: CCCS(=O)(=O)c1nc(NC2CC2)cc(-c2ccc3c(ccn3C3CC(C)(C)NC(C)(C)C3)c2)n1
The GI50 of the first is 7.5-fold higher: 14 µM for the first, 1.86 µM for the second.

Compared with `O=C(N/N=C/c1ccc(Cl)cc1Cl)c1ccccc1Nc1cccc(C(F)(F)F)c1`, `COc1ccc(-c2cc(-c3cc(Cl)ccc3Cl)nc3nc(=S)[nH]c(N)c23)cc1` is 3.8-fold higher in GI50: 12.5 µM for the first, 47.2 µM for the second.

Compared with `c1cc[c]([Sn]([S]c2cccc3cccnc23)([c]2ccccc2)[c]2ccccc2)cc1`, `C=C1C(=O)O[C@H]2[C@H]1CC/C(COC(=O)c1cc3cc(OC)ccc3[nH]1)=C\CC[C@@]1(C)O[C@@H]21` is 46-fold higher in GI50: 0.107 µM for the first, 4.9 µM for the second.

`C=C1CC(COc2cc(Cl)nc(N)n2)C1` and `COC(=O)c1c(O)ccc2[nH]c(C)c(C#N)c12` are within 1.5-fold of each other in GI50: 69.7 µM for the first, 97.5 µM for the second.

Compared with `COC(=O)NC/C=C\c1nc(CC/C=C\C(=O)OC2CC3CC(=O)O[C@@H](/C=C/CC(C)C)C[C@@H]4CCC(C)C(C[C@@H](OC)CC(C2)O3)O4)co1` (stereo partly specified), `CC1(C)OC(=O)C=C([O-])O1.CC1(C)OC(=O)C=C([O-])O1.O=c1c(O)c(-c2ccc([O-])cc2[O-])oc2cc(O)cc(O)c12.[Ti+4]` is lower in GI50: greater than 100 µM for the first, 83.1 µM for the second.

Going from `COc1cc2c3c(n(CCCN4CCC(N)CC4)c(=O)c2cc1OC)-c1cc2c(cc1C3=O)OCO2` to `O=C1c2ccccc2-c2c1c1ccccc1c(=O)n2CCNCCCNCCn1c2c(c3ccccc3c1=O)C(=O)c1ccccc1-2`, the TGI falls from 13.2 µM to 4.83 µM (2.7-fold).

First: C=C(C)[C@@H]1CC[C@@]2(C(=O)O)CC[C@]3(C)C(CCC4[C@@]5(C)CCC(OS(=O)(=O)c6ccccc6)C(C)(C)C5CC[C@]43C)C12 (stereo partly specified)
Second: CCCS(=O)(=O)c1nc(NC2CC2)cc(-c2ccc3c(ccn3C3CC(C)(C)NC(C)(C)C3)c2)n1
The TGI of the first is 13-fold higher: 44.4 µM for the first, 3.46 µM for the second.

Going from `O=C(N/N=C/c1ccc(Cl)cc1Cl)c1ccccc1Nc1cccc(C(F)(F)F)c1` to `COc1ccc(C(=O)C(C(=O)CCC(=O)Nc2cccc(C(F)(F)F)c2)c2ccccc2)cc1` (stereo unspecified), the TGI rises from 39.2 µM to greater than 100 µM.

`N#Cc1c(N)c(C(=O)O)nn(-c2cccc(C(F)(F)F)c2)c1=O` and `COC(=O)c1c(O)ccc2[nH]c(C)c(C#N)c12` cannot be ordered by TGI: greater than 100 µM for the first, greater than 100 µM for the second.

`CCOC(=O)Cc1nc(/C(C#N)=C/c2ccco2)[nH]c(=O)c1C#N` and `N#CC(C#N)=Cc1cccc(Oc2ccccc2)c1` cannot be ordered by TGI: greater than 100 µM for the first, greater than 100 µM for the second.

Compared with `CC1=Nc2c(ccc3c2C(=O)c2ccccc2C3=O)NC(c2ccncc2)C1` (stereo unspecified), `O=C(c1ccccc1)[C@H]1Nc2cnccc2C2c3ccccc3CC21` (stereo partly specified) is lower in TGI: greater than 100 µM for the first, 44.8 µM for the second.

Going from `COc1cc(/C=C\c2ccc(O)cc2)cc(OC)c1OC` to `COc1ccc(/C=C/C(=O)c2sc(-n3nc(-c4ccccc4)cc3-c3ccccc3)nc2C)cc1OC`, the TGI rises from 61.6 µM to greater than 100 µM.

`C=C(COC(C)=O)CC(/C=C(\C)CCC=C(C)C)OC(C)=O` (stereo unspecified) and `CC(=O)OCCOCBr` cannot be ordered by TGI: greater than 100 µM for the first, greater than 100 µM for the second.

`Cc1ccsc1C(=S)Nc1ccc(Cl)c(C(=O)OC(C(C)C)C(C)C)c1` and `CCOc1cccc2nc3cccc(C(=O)NCCN(C)C)c3nc12` cannot be ordered by TGI: greater than 100 µM for the first, greater than 35.4 µM for the second.

Compared with `CC1(C)CCc2cc3c(cc2O1)OCCC3=O`, `C=C1C(=O)O[C@H]2[C@H]1CC/C(COC(=O)c1cc3cc(OC)ccc3[nH]1)=C\CC[C@@]1(C)O[C@@H]21` is lower in TGI: greater than 100 µM for the first, 17.1 µM for the second.

`COc1ccc(-c2cc(-c3cc(Cl)ccc3Cl)nc3nc(=S)[nH]c(N)c23)cc1` and `Cc1cc(C)nc(NS(=O)(=O)c2ccc(Nc3c4ccccc4nc4c(C(=O)N5CCN(CCOS(C)(=O)=O)CC5)ccc(Cl)c34)cc2)n1` cannot be ordered by TGI: greater than 100 µM for the first, greater than 100 µM for the second.

Compared with `Oc1c2c(c(O)c3ccccc13)=N[C@@H](c1ccccc1)[C@H](c1ccccc1)N=2`, `c1cc[c]([Sn]([S]c2cccc3cccnc23)([c]2ccccc2)[c]2ccccc2)cc1` is lower in TGI: greater than 100 µM for the first, 0.356 µM for the second.

`O=C1CCn2c([nH]c3cccc4cccc2c43)=N1` and `CC1CCCC(C(=O)/C(=C/c2cccc(Cl)c2)C(=O)C(=O)O)C1` (stereo unspecified) cannot be ordered by TGI: greater than 100 µM for the first, greater than 100 µM for the second.

`Clc1cc(Cl)c2c(Cl)cc(Cl)c3c2c1N=S=N3` and `CC(=O)c1c(C)n([O-])c2cc(C)c(C)cc2[n+]1=O` cannot be ordered by TGI: greater than 100 µM for the first, greater than 100 µM for the second.

`CN1CCN(C)C1c1cccc(C2N(C)CCN2C)c1` and `CC1(C)OC(=O)C=C([O-])O1.CC1(C)OC(=O)C=C([O-])O1.O=c1c(O)c(-c2ccc([O-])cc2[O-])oc2cc(O)cc(O)c12.[Ti+4]` cannot be ordered by TGI: greater than 100 µM for the first, greater than 100 µM for the second.

`COC(=O)NC/C=C\c1nc(CC/C=C\C(=O)OC2CC3CC(=O)O[C@@H](/C=C/CC(C)C)C[C@@H]4CCC(C)C(C[C@@H](OC)CC(C2)O3)O4)co1` (stereo partly specified) was tested, and the TGI was greater than 100 µM.

Tested on: SR leukemia
Experiment: DTP human tumour cell line panel, 48 h

`N#Cc1c(N)c(C(=O)O)nn(-c2cccc(C(F)(F)F)c2)c1=O` and `CCOC(=O)Cc1nc(/C(C#N)=C/c2ccco2)[nH]c(=O)c1C#N` cannot be ordered by TGI: greater than 100 µM for the first, greater than 100 µM for the second.

`CC1(C)CCc2cc3c(cc2O1)OCCC3=O` and `O=C1CCn2c([nH]c3cccc4cccc2c43)=N1` cannot be ordered by TGI: greater than 100 µM for the first, greater than 100 µM for the second.

Going from `Oc1c2c(c(O)c3ccccc13)=N[C@@H](c1ccccc1)[C@H](c1ccccc1)N=2` to `CCOc1cccc2nc3cccc(C(=O)NCCN(C)C)c3nc12`, the TGI falls from greater than 100 µM to 26.1 µM.

First: CC1=Nc2c(ccc3c2C(=O)c2ccccc2C3=O)NC(c2ccncc2)C1 (stereo unspecified)
Second: C=C1CC(COc2cc(Cl)nc(N)n2)C1
The GI50 of the first is higher: greater than 100 µM for the first, 34.8 µM for the second.
